Tests used:
Assay in all cases: relative viability (nuclei count vs DMSO), 5 days (fraction); higher = more cells survive
Crizotinib + AZD7762 = compound: C[C@@H](Oc1cc(-c2cnn(C3CCNCC3)c2)cnc1N)c1c(Cl)ccc(F)c1Cl [Crizotinib] + NC(=O)Nc1cc(-c2cccc(F)c2)sc1C(=O)N[C@H]1CCCNC1 [AZD7762] (partner 0.2 µM)
Method in brief: (§1)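 Cells from lung cancer lines were seeded into 1536-well plates and, one day later, dosed by pin tool. Treatments were either a single drug or a fixed dose of an anchor drug with five library-drug doses (not always all listed) in √10 steps. After 5 days, nuclei were stained in a one-step fixation (final 0.05% Triton X-100, 1% formaldehyde, 1 ug/ml Hoechst) and counted on 4× images, and relative viability is the treated-to-vehicle nuclei ratio, as the median of duplicate plates.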

Olaparib + Decitabine = compound: O=C(c1cc(Cc2n[nH]c(=O)c3ccccc23)ccc1F)N1CCN(C(=O)C2CC2)CC1 [Olaparib] + Nc1ncn([C@H]2C[C@H](O)[C@@H](CO)O2)c(=O)n1 [Decitabine] (partner 2 µM)
Method in brief: as §1

Carfilzomib + Linsitinib = compound: CC(C)C[C@H](NC(=O)[C@H](CCc1ccccc1)NC(=O)CN1CCOCC1)C(=O)N[C@@H](Cc1ccccc1)C(=O)N[C@@H](CC(C)C)C(=O)[C@@]1(C)CO1 [Carfilzomib] + C[C@]1(O)C[C@@H](c2nc(-c3ccc4ccc(-c5ccccc5)nc4c3)c3c(N)nccn32)C1 [Linsitinib] (partner 1 µM)
Method in brief: as §1

Olaparib + Luminespib = compound: O=C(c1cc(Cc2n[nH]c(=O)c3ccccc23)ccc1F)N1CCN(C(=O)C2CC2)CC1 [Olaparib] + CCNC(=O)c1noc(-c2cc(C(C)C)c(O)cc2O)c1-c1ccc(CN2CCOCC2)cc1 [Luminespib] (partner 0.01 µM)
Method in brief: as §1

Row | Cell Line | relative viability (Crizotinib + AZD7762; first compound 0.01 µM) | relative viability (Crizotinib + AZD7762; first compound 0.03162 µM) | relative viability (Crizotinib + AZD7762; first compound 0.1 µM) | relative viability (Crizotinib + AZD7762; first compound 0.3162 µM) | relative viability (Crizotinib + AZD7762; first compound 1 µM) | relative viability (Olaparib + Decitabine; first compound 0.08 µM) | relative viability (Olaparib + Decitabine; first compound 0.253 µM) | relative viability (Olaparib + Decitabine; first compound 2.53 µM) | relative viability (Olaparib + Decitabine; first compound 8 µM) | relative viability (Carfilzomib + Linsitinib; first compound 0.001 µM) | relative viability (Carfilzomib + Linsitinib; first compound 0.003162 µM) | relative viability (Carfilzomib + Linsitinib; first compound 0.01 µM) | relative viability (Carfilzomib + Linsitinib; first compound 0.03162 µM) | relative viability (Carfilzomib + Linsitinib; first compound 0.1 µM) | relative viability (Olaparib + Luminespib; first compound 0.253 µM) | relative viability (Olaparib + Luminespib; first compound 2.53 µM) | relative viability (Olaparib + Luminespib; first compound 8 µM) | relative viability (Olaparib + Luminespib; first compound 0.08 µM)
1 | BEN | 0.726 | 0.645 | 0.671 | 0.586 | 0.679 | 0.654 | 0.55 | 0.639 | 0.641 | 0.968 | 1.21 | 0.965 | 0.865 | 0.392 | 0.308 | 0.283 | 0.31 | 
2 | NCI-H1651 | 0.438 | 0.472 | 0.409 | 0.483 | 0.463 | 0.356 | 0.277 | 0.224 | 0.168 | 0.982 | 0.965 | 0.487 | 0.0962 | 0.0748 | 0.605 | 0.431 | 0.216 | 0.798
3 | NCI-H2087 | 1.39 | 1.49 | 1.24 | 1.24 | 1.48 | 0.249 | 0.189 | 0.262 | 0.167 | 0.936 | 1.05 | 0.851 | 0.108 | 0.119 | 0.159 | 0.199 | 0.154 | 0.162
4 | NCI-H460 | 0.592 | 0.64 | 0.665 |  | 0.607 | 0.114 | 0.128 | 0.0907 | 0.062 | 0.759 | 0.891 | 0.719 | 0.0155 | 0.0133 | 0.0392 | 0.0354 | 0.034 | 0.0349
5 | NCI-H1993 | 0.702 | 0.75 |  | 0.379 | 0.527 | 0.512 | 0.59 | 0.666 | 0.636 | 0.758 | 0.773 | 0.712 | 0.607 | 0.563 | 0.842 | 0.78 | 1.04 | 0.87
6 | NCI-H23 | 0.281 | 0.323 | 0.297 |  | 0.261 | 0.336 | 0.313 | 0.259 | 0.277 | 0.537 | 0.708 | 0.567 | 0.206 | 0.12 | 0.211 | 0.2 | 0.186 | 0.229
7 | LCLC-97TM1 | 0.193 | 0.138 | 0.252 | 0.104 | 0.339 | 0.193 | 0.143 | 0.165 | 0.178 | 0.205 | 0.178 | 0.207 | 0.119 | 0.127 | 0.651 | 0.712 | 0.637 | 0.756
8 | NCI-H1915 | 0.66 | 0.682 | 0.739 | 0.694 | 0.704 | 0.242 | 0.239 | 0.234 | 0.196 | 1.1 | 1.1 | 1.05 | 0.655 | 0.106 | 0.575 | 0.408 | 0.387 | 0.685
9 | LOU-NH91 | 0.778 | 0.82 | 0.796 | 0.719 | 0.716 | 0.853 | 0.774 | 0.783 | 0.769 | 1.01 | 1.14 | 0.67 | 0.334 | 0.298 | 0.36 | 0.346 | 0.332 | 0.341
10 | EKVX | 0.67 | 0.742 | 0.647 | 0.685 | 0.726 | 0.238 | 0.276 | 0.337 | 0.276 | 0.927 | 1.2 | 1.08 | 1.01 | 0.33 | 0.831 | 0.791 | 0.784 | 1.03
11 | LXF-289 | 1.05 | 1.11 | 1.16 | 1 | 1.19 | 0.336 | 0.302 | 0.272 | 0.232 | 1 | 1.03 | 0.982 | 0.097 | 0.083 | 0.635 | 0.721 | 0.567 | 0.784
12 | HCC-827 | 0.236 | 0.201 | 0.184 | 0.174 | 0.217 | 0.306 | 0.266 | 0.291 | 0.231 | 0.941 | 0.979 | 1.05 | 0.848 | 0.406 | 0.585 | 0.629 | 0.368 | 0.544
13 | NCI-H3122 | 1.01 | 1.05 | 0.93 | 0.962 | 0.921 | 0.385 | 0.351 | 0.259 | 0.256 | 0.958 | 1.05 | 0.95 | 1 | 0.806 | 0.107 | 0.101 | 0.0643 | 0.0823
14 | NCI-H2126 | 0.928 | 1.09 | 1.02 | 0.903 | 1.04 | 0.614 | 0.544 | 0.541 | 0.542 | 0.703 | 0.793 | 0.695 | 0.764 | 0.58 | 0.797 | 0.811 | 0.724 | 1.13
15 | HARA | 0.216 | 0.274 | 0.679 | 0.382 | 0.516 | 0.437 | 0.397 | 0.396 | 0.338 | 0.89 | 1.03 | 1.07 | 0.0722 | 0.0537 | 0.531 | 0.8 | 0.523 | 1.22
16 | LC-2-ad | 0.779 | 0.854 | 0.846 |  | 0.853 | 0.618 | 0.623 | 0.557 | 0.509 | 0.879 | 0.907 | 0.907 | 0.462 | 0.151 | 0.865 | 0.765 | 0.811 | 1.11

Source: the supplement of paper PMC10307832
